Like-named read-outs stand apart in the source and are kept apart here.
Key:
[1] = tested on: clinical isolates of Klebsiella pneumonia (and ATCC43816); assay: MIC determination at University Medical Center Groningen; assay type: cell-based; settings: Klebsiella pneumoniae
Excerpt: (§1) 3.4.3 MIC Determination at University Medical Center Groningen (the Netherlands)
(§2) Tested reference compounds. Amikacin sulfate (Cat. No. 01693, Chem-Impex), Gentamicin sulfate (Cat. No. G4918, Sigma Aldrich).
(§3) Bacterial strains/isolates. Pseudomonas aeruginosa ATCC 27853, Escherichia coli ATCC 25922, Klebsiella pneumonia ATCC43816, Acinetobacter baumannii ATCC17978, 9 clinical isolates of Klebsiella pneumonia (origin: 4 unknown, 3 urine, 1 sputum, 1 catheter tip), 7 clinical isolates of Pseudomonas aeruginosa (origin: 3 unknown, 1 wound, 1 catheter, 1 faeces, bronco alveolar liquid=BAL), 8 clinical isolates of Escherichia coli (origin: 2 bile liquid, 2 rectum, 1 throat, 2 blood culture, 1 sputum), 4 clinical isolates of Acinetobacter baumannii (origin: 2 blood culture, 1 sputum, 1 bone).
(§4) Culture media and equipment. As indicated by EUCAST guidelines (European Committee on Antimicrobial Susceptibility Testing (EUCAST); Media preparation for EUCAST disk diffusion testing and for determination of MIC values by the broth microdilution method; Version 5.0, 2017), Mueller Hinton Broth, CM0405, (Oxoid) was used for the broth micro-dilutions; and Mueller Hinton Agar, CM0337, (Oxoid) was used for the plating on agar. The testing assays were conducted in 96-well plates, with U-bottom shape (Greiner Bio-one); All bacteria strains/isolates used were handled in a Laminar flow, Clean Air (Baker). A CO2 incubator commercialized by Sanyo was used. Finally, spectrophotometer measurements were conducted using a Synergy 2 Multi-detection Microplate Reader (BioTek).
(§5) Compound preparation. The compounds were weighed and dissolved into MilliQ water. These concentrated stock aliquots were then further diluted to reach the desired testing concentrations. Serial dilutions were made in order to achieve the ten desired final concentrations for the tested compounds, that ranged between 64-0.125 μg/mL. The concentrations were calculated in respect to the 150 μL of final volume used for each of the 96-wells. Of these dilutions, 100 μL was added in each testing well of a sterile 96-well plate. All compound dilutions were plated in triplicate, while duplicates were used for the two reference antibiotics.
(§6) Inoculum preparation. The clinical isolates were revived from Luria Bertani medium storage at −80° C. by plating them overnight on MH agar plates. The following day, a few colonies were picked and inoculated in small glass bottles containing 10 mL MH broth. Growth was subsequently allowed for approx. 3 hours, at 35° C. with 250 rpm shaking, until the isolates reached late logarithmic growth phase. At this point culture solutions were prepared with an OD600 (optical density measured at 600 nm; measured using Synergy 2 Multi-detection Microplate Reader; BioTek) of 0.05. […] 50 μL of culture suspension was added to each of the wells of the 96 well plate previously loaded with the desired antibiotic/medium solution, reaching a final total volume of 150 μL per well. As controls, blanks of the MH medium and of culture were added to the 96-well plate. Plates were incubated in a plate incubator in static conditions at 35° C. for 18 hours.
(§7) MIC determination. After the incubation time, the MIC value was determined by visual inspection of bacterial growth within 96-well plates. The first column in which there was no visible growth of bacteria was determined as the MIC90 value for the compound tested in that particular row. Additionally, spectrophotometer readouts at 600 nm were recorded for each well.
(§8) MIC90. The MIC90 of a compound was assigned at which no visible growth of bacteria was determined.

[2] = tested on: clinical isolates of Escherichia coli (and ATCC 25922); assay: as above; assay type: cell-based
Excerpt: as §1, §2, §3, §4, §5, §6, §7, §8

N=C(N)NC1C(O)[C@@H](CO)OC(OC2C(F)[C@H](O[C@H]3OC(CN)[C@@H](O)CC3N)C(N)C[C@H]2NC(=O)[C@@H](O)CCN)[C@@H]1O (stereo partly shown) [ABX5006, Tobra-AHB-F-Gua] gave an MIC90 ([1]; ATCC43816, K. pneumoniae ATCC43816 strain, broth micro-dilution (CLSI), read-out: MIC 90) of 0.25 µg/mL, an MIC90 ([1]; ATCC43816, K. pneumoniae clinical isolate KP-107, KPC/Pandrug-resistant, origin Urine, read-out: MIC 90) of 8 µg/mL and an MIC90 ([1]; ATCC43816, K. pneumoniae clinical isolate KP-108, KPC/Pandrug-resistant, origin Urine, read-out: MIC 90) of 8 µg/mL. It also gave an MIC90 ([1]; ATCC43816, K. pneumoniae clinical isolate KP-109, KPC/Pandrug-resistant, origin Catheter tip, read-out: MIC 90) of 16 µg/mL, an MIC90 ([1]; ATCC43816, K. pneumoniae clinical isolate KP-110, KPC/Pandrug-resistant, origin Sputum, read-out: MIC 90) of 8 µg/mL and an MIC90 ([1]; ATCC43816, K. pneumoniae clinical isolate KP-111, KPC/Pandrug-resistant, origin Urine, read-out: MIC 90) of 8 µg/mL. It also gave an MIC90 ([1]; ATCC43816, K. pneumoniae clinical isolate KP-113, KPC/Pandrug-resistant, origin unkown) of 4 µg/mL, an MIC90 ([2]; ATCC25922, E. coli ATCC25922 strain, broth micro-dilution (CLSI)) of 0.5 µg/mL and an MIC90 ([2]; ATCC25922, E. coli clinical isolate EC-11, Multidrug-resistant, origin Throat) of 0.5 µg/mL. For the same compound, the MIC90 ([2]; ATCC25922, E. coli clinical isolate EC-12, Multidrug-resistant, origin Rectum) was 2 µg/mL, the MIC90 ([2]; ATCC25922, E. coli clinical isolate EC-22, Multidrug-resistant, origin Sputurn) was 4 µg/mL and the MIC90 ([2]; ATCC25922, E. coli clinical isolate EC-25, Multidrug-resistant, origin Bile liquid) was 4 µg/mL. The MIC90 ([2]; ATCC25922, E. coli clinical isolate EC-26, Multidrug-resistant, origin Bile liquid) was 4 µg/mL, the MIC90 ([2]; ATCC25922, E. coli clinical isolate EC-40, Multidrug-resistant, origin Blood culture) was 2 µg/mL and the MIC90 ([2]; ATCC25922, E. coli clinical isolate EC-43, Multidrug-resistant, origin Rectum) was 4 µg/mL. For the same compound, the MIC90 ([2]; ATCC25922, E. coli clinical isolate EC-46, suceptible, origin Blood culture) was 2 µg/mL.

From patent US20220127297A1, “Novel Antibacterial 3"-Derivatives Of 4,6-Disubstituted 2,5-Dideoxystreptamine Aminoglycoside Antibiotics” (AGILeBiotics B.V., priority 2018, published 2022)
